Our source for the EC50 values is US7468369B2, “Sulfonyl pyrrolidines, method for producing the same and their use as drugs” (Sanofi-Aventis, priority 2005, dated 2008).

Structures can show the parent of a compound that is named as a salt.

For one assay, the system named is human ABCA1 promoter. Briefly: ABCA1 promoter test (luciferase reporter in stably transfected THP1 cell line). The assay is classed as cell-based. The note with it: Homo sapiens, THP-1, 24 h; read-out: E50 ABCA1. Put shortly: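 PMA-differentiated THP1 macrophages stably carrying a 3.2 kb human ABCA1 promoter-luciferase construct, treated 24 h at 37° C with 11 concentrations ([…] to 330 pM, DMSO <0.1%). Luciferase read by luminescence after lysis; EC50 from dose-response plots.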
A general note: A reporter such as luciferase makes a cellular process visible.
In the case of `Cc1ccc(C)c(N2CCN(C(=O)[C@H]3CN(S(=O)(=O)c4cccs4)C[C@H]3c3ccccc3)CC2)c1` (racemic) [Example 117, [4-(2,5-Dimethylphenyl)piperazin-1-yl]-[3,4-cis-4-phenyl-1-(thiophene-2-sulfonyl)pyrrolidin-3-yl]methanone], the EC50 was 0.291 µM.

Still in this assay, the particulars now being: Homo sapiens, THP-1; ABCA1 reporter cell line (THP1, PMA-differentiated), 24 h incubation, luciferase chemiluminescence; read-out: E50 ABCA1.
`O=C([C@@H]1CN(S(=O)(=O)c2cc(Br)c(Br)s2)C[C@H]1c1ccccc1)N1CCN(c2ccccc2)CC1` (racemic) [Example 64, [1-(4,5-Dibromothiophene-2-sulfonyl)-3,4-trans-4-phenylpyrrolidin-3-yl]-(4-phenylpiperazin-1-yl)methanone]: the EC50 worked out at 3.16 µM. The same measure, in the same setting: the value for `COc1ccc(N2CCN(C(=O)[C@@H]3CN(S(=O)(=O)c4cc(Br)c(Br)s4)C[C@H]3c3ccccc3)CC2)cc1` (racemic) [Example 59] was 1.16 µM. The same measure, in the same setting: the value for `COc1ccc(OC)c(N2CCN(C(=O)[C@@H]3CN(S(=O)(=O)c4cccs4)C[C@H]3c3ccccc3)CC2)c1` [Example 84, [4-(2,5-Dimethoxyphenyl)piperazin-1-yl]-[3,4-trans-4-phenyl-1-(thiophene-2-sulfonyl)pyrrolidin-3-yl]methanone trifluoroacetate] was 2.67 µM; that for `COc1cccc(S(=O)(=O)N2C[C@@H](Cc3ccccc3)[C@H](C(=O)N3CCN(c4cc(C)ccc4C)CC3)C2)c1` [Example 94, [3,4-trans-4-Benzyl-1-(3-methoxybenzenesulfonyl)pyrrolidin-3-yl]-[4-(2,5-dimethylphenyl)piperazin-1-yl]methanone trifluoroacetate] was 2.93 µM; that for `COc1ccc(OC)c(N2CCN(C(=O)[C@@H]3CN(S(=O)(=O)c4cccc5nonc45)C[C@H]3c3ccccc3)CC2)c1` [Example 83, [1-(Benzo[1,2,5]oxadiazole-4-sulfonyl)-3,4-trans-4-phenylpyrrolidin-3-yl]-[4-1-(2,5-dimethoxyphenyl)piperazin-1-yl]methanone trifluoroacetate] was 3 µM. For `Cc1ccccc1S(=O)(=O)N1C[C@@H](C(=O)N2CCN(c3cc(Cl)ccc3Cl)CC2)[C@H](c2ccccc2)C1` [Example 85, [[4-(2,5-Dichlorophenyl)piperazin-1-yl]-[3,4-trans-4-phenyl-1-(toluene-2-sulfonyl)pyrrolidin-3-yl]methanone trifluoroacetate], the EC50 amounted to 0.26 µM. For the compound `COc1cccc(S(=O)(=O)N2C[C@H](C(=O)N3CCN(c4cc(C)ccc4C)CC3)[C@H](c3ccccc3)C2)c1` [Example 119, [4-(2,5-Dimethylphenyl)piperazin-1-yl]-[1-(3-methoxybenzenesulfonyl)-3,4-cis-4-phenylpyrrolidin-3-yl]methanone trifluoroacetate], the EC50 was determined as 0.177 µM. Same read-out and setting: the value for `Cc1ccc(C)c(N2CCN(C(=O)[C@@H]3CN(S(=O)(=O)c4c(C)noc4C)C[C@H]3C)CC2)c1` [Example 90, [[1-(3,5-Dimethylisoxazole-4-sulfonyl)-3,4-trans-4-methylpyrrolidin-3-yl]-[4-(2,5-dimethylphenyl)piperazin-1-yl]methanone trifluoroacetate] was 16.8 µM. Still for that read-out and setting: the value for `Cc1cccc(N2CCN(C(=O)[C@@H]3CN(S(=O)(=O)c4ccc(Cl)s4)C[C@H]3c3ccccc3)CC2)c1C` (racemic) [Example 54, [1-(5-Chlorothiophene-2-sulfonyl)-3,4-trans-4-phenylpyrrolidin-3-yl]-[4-(2,3-dimethylphenyl)piperazin-1-yl]methanone] was 4.63 µM; that for `Cc1ccc(C)c(N2CCN(C(=O)[C@H]3CN(S(=O)(=O)c4cccnc4)C[C@H]3c3ccccc3)CC2)c1` [Example 120, [4-(2,5-Dimethylphenyl)piperazin-1-yl]-[3,4-cis-4-phenyl-1-(pyridine-3-sulfonyl)pyrrolidin-3-yl]methanone trifluoroacetate] was 0.395 µM. Same read-out and setting: the value for `Cc1ccc(C)c(N2CCN(C(=O)[C@@H]3CN(S(=O)(=O)c4cccnc4)C[C@H]3c3ccoc3)CC2)c1` [Example 116, [4-(2,5-Dimethylphenyl)piperazin-1-yl]-[3,4-trans-4-furan-3-yl-1-(pyridine-3-sulfonyl)pyrrolidin-3-yl]methanone trifluoroacetate] was 10.8 µM; that for `Cc1ccc(C)c(N2CCN(C(=O)[C@@H]3CN(S(=O)(=O)c4ccc(Cl)s4)C[C@H]3c3ccccc3)CC2)c1` (racemic) [Example 48, [1-(5-Chlorothiophen-2-sulfonyl)-3,4-trans-4-phenylpyrrolidin-3-yl]-[4-(2,5-dimethylphenyl)piperazin-1-yl]methanone] was 0.706 µM; that for `Cc1ccc(N2CCN(C(=O)[C@@H]3CN(S(=O)(=O)c4cccs4)C[C@H]3c3ccccc3)CC2)c(C)c1` (racemic) [Example 36, [4-(2,4-Dimethylphenyl)piperazin-1-yl]-[3,4-trans-4-phenyl-1-(thiophene-2-sulfonyl)pyrrolidin-3-yl]methanone] was 3.6 µM. For the compound `Cc1ccc(C)c(N2CCN(C(=O)[C@@H]3CN(S(=O)(=O)c4cccs4)C[C@H]3c3ccccc3)CC2)c1` (racemic) [Example 67, [4-(2,5-Dimethylphenyl)piperazin-1-yl]-[3,4-trans-4-phenyl-1-(thiophene-2-sulfonyl)pyrrolidin-3-yl]methanone], the EC50 was determined as 2.19 µM. Same read-out and setting: the value for `Cc1ccc(C)c(N2CCN(C(=O)[C@@H]3CN(S(=O)(=O)c4cccnc4)C[C@H]3c3ccccc3C)CC2)c1` [Example 100, [4-(2,5-Dimethylphenyl)piperazin-1-yl]-[1-(pyridine-3-sulfonyl)-3,4-trans-4-o-tolylpyrrolidin-3-yl]methanone trifluoroacetate] was 1.35 µM.
